Source: patent publication US9409952B2, “Peptide-compound cyclization method” (Chugai Seiyaku Kabushiki Kaisha, priority 2011, dated 2016)
Where two headings read alike, the source gives them in different places. Starred links: 1 amine or outer side, 2 acyl side, 3 side chain; linkers in the order of their positions; H or OH if unused. Positions of bridges follow the written chain, without caps; N, C: chain ends. Non-standard residues stand in square brackets, D forms with d. Residues, ends and D or L forms follow the SMILES beside them. *: point of attachment. NMePhe(3-Cl) = CN[C@@H](Cc1cccc(Cl)c1)C(=O)O; NMeF = CN[C@@H](Cc1ccccc1)C(=O)O; NMeGABA = CN(CCCC(=O)[*:2])[*:1]; NMeI = CC[C@H](C)[C@H](NC)C(=O)O; NMeβAla = CN(CCC(=O)[*:2])[*:1]; NMeL = CN[C@@H](CC(C)C)C(=O)O; NMeV = CN[C@H](C(=O)O)C(C)C; NMeA = CN[C@@H](C)C(=O)O; Piperidide = C1CCN(*)CC1; dNMeA = CN[C@H](C)C(=O)O; β3hA = C[C@H](N)CC(=O)O; Sar = CNCC(=O)O; tBu = CC(C)(C)*

How the values were obtained:
[1] = Metabolic stability in human hepatic microsome; type: in vitro ADME; details: microsomes
[2] = PAMPA (parallel artificial membrane permeability assay); type: in vitro ADME; details: PAMPA
How it was run: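 Artificial membrane was 10% (w/v) egg lecithin plus 0.5% (w/v) cholesterol in dodecane on a PVDF filter. A 10 mM DMSO stock was added at 0.5% (v/v) to donor buffer (50 mM MOPSO, pH 6.5, 5.0% glycocholic acid). After 18 h at 37 °C, LC/MS or LC/UV gave donor and acceptor levels for Pe.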

[3] = pH 7.4, human hepatic microsome, NADPH(+), read-out: CL NADPH(+)
[4] = membrane permeation rate (Pe), 50 mM MOPSO buffer pH 6.5 with 5.0% glycocholic acid, 37° C., 18 hours, read-out: iPAMPA Pe

| Structure (SMILES) | microsomal CLint at 1 uM [1, 3] | Papp at 18 hours, 50 µM [2, 4] | microsomal CLint at 1 uM ([1]; human, pH 7.4, CL NADPH(+)) | Papp at 18 hours, 50 µM ([2]; pH 6.5) |
| --- | --- | --- | --- | --- |
| CC(C)C[C@H]1C(=O)N[C@@H](COC(C)(C)C)C(=O)N(C)[C@@H](CC(C)C)C(=O)N[C@H](C(=O)N2CCCCC2)CC(=O)N[C@H](C)C(=O)N(C)[C@@H](C)C(=O)N(C)[C@@H](Cc2ccccc2)C(=O)N(C)[C@@H](CC(C)C)C(=O)N[C@@H]([C@@H](C)O)C(=O)N(C)CC(=O)N1C [DP-170] ([dA][NMeA][NMeF][NMeL]T[Sar][NMeL]S(tBu)[NMeL]D-Piperidide; lactam N-10) | 22 µL/min/mg | 43 ×10⁻⁶ cm/s |  |  |
| CC[C@H](C)[C@H]1C(=O)N(C)[C@@H](Cc2ccccc2)C(=O)N[C@@H]([C@@H](C)O)C(=O)N(C)[C@@H](C)C(=O)N(C)[C@@H](C(C)C)C(=O)N(C)[C@@H](CC(C)C)C(=O)N[C@@H](C)C(=O)N[C@H](C(=O)N2CCCCC2)CC(=O)N(C)CCC(=O)N[C@@H](Cc2ccccc2)C(=O)N(C)[C@@H](CC(C)C)C(=O)N1C [DP-241] ([NMeβAla]F[NMeL][NMeI][NMeF]T[NMeA][NMeV][NMeL]AD-Piperidide; lactam N-11) | 30 µL/min/mg | 26 ×10⁻⁶ cm/s |  |  |
| CC(C)C[C@H]1C(=O)N[C@@H]([C@@H](C)O)C(=O)N(C)[C@@H](C)C(=O)N(C)[C@@H](CC(C)C)C(=O)N[C@@H](C(C)C)C(=O)N[C@H](C(=O)N(C)[C@@H](Cc2ccccc2)C(=O)N(C)[C@@H](Cc2ccccc2)C(=O)N[C@@H](C)C(=O)N2CCCCC2)CC(=O)N(C)[C@H](C)C(=O)N(C)[C@@H](Cc2ccccc2)C(=O)N(C)CC(=O)N1C [DP-214] ([dNMeA][NMeF][Sar][NMeL]T[NMeA][NMeL]VD[NMeF][NMeF]A-Piperidide; lactam N-9) | 33 µL/min/mg | 34 ×10⁻⁶ cm/s |  |  |
| CC[C@H](C)[C@H]1C(=O)NCC(=O)N[C@H](C(=O)N2CCCCC2)CC(=O)N(C)[C@H](C)C(=O)N[C@@H](Cc2ccccc2)C(=O)N(C)[C@@H](CC(C)C)C(=O)N[C@@H](COC(C)(C)C)C(=O)N[C@@H](Cc2ccccc2)C(=O)N2CCC[C@H]2C(=O)N[C@@H]([C@@H](C)O)C(=O)N[C@@H](CC(C)C)C(=O)N(C)[C@@H](C)C(=O)N1C [DP-62] ([dNMeA]F[NMeL]S(tBu)FPTL[NMeA][NMeI]GD-Piperidide; lactam N-12) |  |  | 22 µL/min/mg | 33 ×10⁻⁶ cm/s |
| CC[C@H](C)[C@@H]1NC(=O)[C@H](Cc2ccccc2)NC(=O)[C@H]([C@@H](C)O)NC(=O)[C@H](CC(C)C)NC(=O)CCN(C)C(=O)C[C@@H](C(=O)N2CCCCC2)NC(=O)[C@H](CC(C)C)NC(=O)[C@H](Cc2ccccc2)N(C)C(=O)[C@H](Cc2ccccc2)NC(=O)[C@H](CC(C)C)NC1=O [DP-424] ([NMeβAla]LTFILF[NMeF]LD-Piperidide; lactam N-10) | 135 µL/min/mg | 46 ×10⁻⁶ cm/s |  |  |
| CC(C)C[C@H]1C(=O)N(C)[C@@H](Cc2ccccc2)C(=O)N[C@H](C(=O)N2CCCCC2)CC(=O)N(C)CCCC(=O)N(C)[C@@H](C)C(=O)N(C)[C@@H](CC(C)C)C(=O)N[C@@H]([C@@H](C)O)C(=O)N(C)CC(=O)N1C [DP-712] ([NMeGABA][NMeA][NMeL]T[Sar][NMeL][NMeF]D-Piperidide; lactam N-8) | 57 µL/min/mg | 12 ×10⁻⁶ cm/s |  |  |
| C=C1CCC(=O)N[C@@H](C)C(=O)N(C)[C@@H](CC(C)C)C(=O)N[C@@H]([C@@H](C)CC)C(=O)N(C)[C@@H](Cc2ccccc2)C(=O)N(C)[C@@H](CC(C)C)C(=O)N(C)[C@@H](C(C)C)C(=O)N[C@@H](Cc2ccccc2)C(=O)N[C@@H]([C@@H](C)O)C(=O)N[C@H](C(=O)N2CCCCC2)Cc2cccc1c2 [DP-846] |  |  | 310 µL/min/mg | 3.4 ×10⁻⁶ cm/s |
| CC(C)C[C@H]1C(=O)N[C@@H](COC(C)(C)C)C(=O)N[C@@H](C)CC(=O)N[C@H](C(C)C)C(=O)N(C)[C@@H](Cc2cccc(Cl)c2)C(=O)N(C)[C@@H](C)C(=O)N(C)[C@@H](CC(C)C)C(=O)N[C@@H]([C@@H](C)O)C(=O)N(C)[C@@H](C)C(=O)N1C [DP-801] (cyclo([NMeA][NMeL]S(tBu)[β3hA][dV][NMePhe(3-Cl)][NMeA][NMeL]T)) | 133 µL/min/mg | 60 ×10⁻⁶ cm/s |  |  |
